These results are taken from patent publication US10752607B2, “Polymorphs of N-[(6-cyano-2-fluoro)-3-methoxyphenyl)methyl]-3-(methoxymethyl)-1-({4-[(2-oxopyridin-1-yl)methyl]phenyl}methyl)pyrazole-4-carboxamide as kallikrein inhibitors” (KALVISTA PHARMACEUTICALS LIMITED, priority 2016, dated 2020).

For data set [1] the following is noted: in vivo; cited from earlier work.
The next data set concerns rats. Conditions: systemic administration; cited from earlier work.
Data set [2] is described as follows: Pharmacokinetic study, single oral dose in male Sprague-Dawley rats. Format: in vivo. The note with it: male Sprague-Dawley rat, 10% DMSO/10% cremophor/80% SWFI, plasma. Here is the method:
A pharmacokinetic study of N-[(6-cyano-2-fluoro-3-methoxyphenyl)methyl]-3-(methoxymethyl)-1-({4-[(2-oxopyridin-1-yl)methyl]phenyl}methyl)pyrazole-4-carboxamide was performed to assess the pharmacokinetics following a single oral dose in male Sprague-Dawley rats. Two rats were given a single po dose of 5 mL/kg of a nominal 2 mg/mL (10 mg/kg) composition of test compound in vehicle. Following dosing, blood samples were collected over a period of 24 hours. Sample times were 5, 15 and 30 minutes then 1, 2, 4, 6, 8 and […]. Following collection, blood samples were centrifuged and the plasma fraction analysed for concentration of test compound by LCMS.

Another data set deals with T1, Human FXIa (Homo sapiens, UniProt P03951).
T1 construct: purchased Enzyme Research Laboratories
T1 sequence (P03951 388-625 limits assumed): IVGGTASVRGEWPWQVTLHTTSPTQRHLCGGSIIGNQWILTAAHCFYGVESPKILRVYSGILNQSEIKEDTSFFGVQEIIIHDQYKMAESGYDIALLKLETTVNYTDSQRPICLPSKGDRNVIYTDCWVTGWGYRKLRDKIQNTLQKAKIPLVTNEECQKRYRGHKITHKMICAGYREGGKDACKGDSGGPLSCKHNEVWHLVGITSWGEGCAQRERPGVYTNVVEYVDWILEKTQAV
T1 sequence (P03951 19-387 partner limits assumed): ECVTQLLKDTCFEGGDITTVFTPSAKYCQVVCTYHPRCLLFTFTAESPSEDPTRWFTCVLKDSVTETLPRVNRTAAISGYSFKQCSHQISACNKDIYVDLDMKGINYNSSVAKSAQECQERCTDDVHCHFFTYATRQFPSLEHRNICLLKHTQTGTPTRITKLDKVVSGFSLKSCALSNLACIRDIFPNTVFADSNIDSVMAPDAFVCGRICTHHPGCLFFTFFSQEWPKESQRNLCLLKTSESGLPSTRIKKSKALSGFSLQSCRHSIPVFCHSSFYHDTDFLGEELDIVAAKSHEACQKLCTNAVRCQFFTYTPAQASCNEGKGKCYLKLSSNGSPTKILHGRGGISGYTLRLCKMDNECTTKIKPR
The experiment in a line: Determination of the % inhibition for FXIa (fluorogenic substrate Z-Gly-Pro-Arg-AFC). It counts as biochemical. Conditions: 40 μM test compound, 25° C. The method, then:
Determination of the % Inhibition for FXIa
FXIa inhibitory activity in vitro was determined using standard published methods (see e.g. Johansen et al., Int. J. Tiss. Reac. 1986, 8, 185; Shori et al., Biochem. Pharmacol., 1992, 43, 1209; Stürzebecher et al., Biol. Chem. Hoppe-Seyler, 1992, 373, 1025). Human FXIa (Enzyme Research Laboratories) was incubated at 25° C. with the fluorogenic substrate Z-Gly-Pro-Arg-AFC and 40 μM of the test compound. Residual enzyme activity (initial rate of reaction) was determined by measuring the change in […].

Data set [3] relates to LPS-induced disseminated intravascular coagulation. The note with it: cited from earlier work.
For data set [4], the system named is intrinsic pathway of coagulation. The note with it: in vitro; cited from earlier work.
The conditions of data set [5]: contacting blood with the inhibitor; cited from earlier work.

For the compound `N=C(N)c1ccc(CNC(=O)c2cnn(Cc3ccccc3)c2)cc1` [ASP-440], the oral availability result in data set [1] is listed as “poor oral availability”. Further, the hematoma expansion entry with rats was “reduced hematoma expansion”.
Regarding `COCc1nn(Cc2ccc(Cn3ccccc3=O)cc2)cc1C(=O)NCc1c(C#N)ccc(OC)c1F` [N-[(6-cyano-2-fluoro-3-methoxyphenyl)methyl]-3-(methoxymethyl)-1-({4-[(2-oxopyridin-1-yl)methyl]phenyl}methyl)pyrazole-4-carboxamide], the Cmax in data set [2] (single po dose 5.5 mg/kg) was 397 ng/mL; in data set [2] (single po dose 7.8 mg/kg), 360 ng/mL. Besides, the Tmax in data set [2] (single po dose 5.5 mg/kg) was 30 min; in data set [2] (single po dose 7.8 mg/kg), 60 min. Moreover, on Human FXIa, testing at 40 µM gave an inhibition of 28%.
In the case of `Cl.NCC1CCC(C(=O)N[C@@H](Cc2ccccc2)C(=O)Nc2ccc(CC(=O)O)cc2)CC1` (stereo partly shown) [PKSI-527], the “platelet count, fibrinogen level and FDP level” value in data set [3] was “significantly suppressed the decrease in platelet count and fibrinogen level as well as the increase in FDP level”.
Consider Ecallantide, for which the “contact activated induced coagulation” value in data set [4] is listed as “delay contact activated induced coagulation”. Moreover, the “activated clotting time (ACT)” value in data set [5] was “increase in activated clotting time (ACT)”.
